Earlier results in patent publication US9662309B2, “Anti-demodicosis agent” (BAYER INTELLECTUAL PROPERTY GMBH, priority 2004, dated 2017).

Test system: demodicosis
Settings: spot-on treatment 3 times weekly

22,23-dihydroavermectin B1 [ivermectin]
effectiveness against demodicosis: insufficiently effective
